In the assay the test system is C57BLKS db/db mice. Nature of the assay: 10 days study: fasting blood glucose and oral glucose tolerance in db/db mice. The format is in vivo, mouse. The conditions noted are these: for Blood glucose (15 min after glucose application) / Blood glucose (before glucose application): fasted 24 h; for Blood glucose (15 min after glucose application): 15 min after oral 1 g/kg glucose; for Blood glucose (before glucose application): 1 h after dose. The method, then: Female C57BLKS db/db mice obtained from M&B A/S (8680 Ry, Denmark) were used in the studies at 10 to 11 weeks of age. Mice were housed 10 per cage and allowed free access to water and standard laboratory diet for rodents (chow 3433, Provimi Kliba SA, 4303 Kaiseraugst, Switzerland).
Mice were allowed to acclimate to the local animal facilities for 1 week and retro-orbital blood samples were obtained 3 to 7 days prior to the start of the study.
Mice were treated with vehicle, Roflumilast or Roflumilast-N-Oxide, respectively once daily in the morning. Roflumilast or Roflumilast-N-Oxide was suspended in 4% methocel and applied via oral gavage using oral feeding & dosing needles (outer diameter: 1.5 mm, TSE GmbH, 61350 Bad Homburg, Germany). A volume of 10 ml/kg body weight was administered for each dose.
10 days studies: Mice were treated with vehicle, Roflumilast or Roflumilast-N-Oxide once daily in the morning. On day 9, mice were fasted for 24 hours by removing standard diet for laboratory animals 1 hour after drug application. On day 10, one hour after administration of vehicle, Roflumilast or Roflumilast-N-Oxide glucose tolerance was assessed by oral application of 1 g/kg/10 ml glucose. Blood was sampled before and 15 minutes after glucose application and levels of glucose (accu-chek, Roche Diagnostics GmbH, 68298 Mannheim, Germany) were measured.

[1] abbreviates: Roflumilast 1 mg/kg oral once daily 10 days.
Setting [2] is: Roflumilast 10 mg/kg oral once daily 10 days.

As for `O=C(Nc1c(Cl)cncc1Cl)c1ccc(OC(F)F)c(OCC2CC2)c1` [Roflumilast, 3-cyclopropylmethoxy-4-difluoromethoxy-N-(3,5-dichloropyrid-4-yl)benzamide], under setting [1], the “Blood glucose (15 min after glucose application)” value is 507 mg/dL and the “Blood glucose (before glucose application)” value was determined as 347 mg/dL. Besides, under setting [2], the “Blood glucose (15 min after glucose application)” value is 412 mg/dL and the “Blood glucose (before glucose application)” value came out at 191 mg/dL. Under “db/db mice”, the “Effect on fasting blood glucose levels (summary in words)” value is “reduce” and the “Effect on postprandial blood glucose levels (summary in words)” value is given as “reduce”.
